In general, pIC50 refers to −log10 of the IC50, conventionally taken in molar units. As usually defined, the pEC50 is −log10 of the EC50, conventionally taken in molar units. What is called CC50 is the concentration at which the toxic effect on the cells reaches its halfway point. One may read the half-life as the time in which the quantity being followed falls by half. In general, Papp A→B refers to the apparent permeability from the apical to the basolateral side of a cell layer. By bioavailability is commonly meant dose-corrected exposure relative to a reference, in per cent. Broadly, the AUC is concentration integrated over time. The clearance is the rate of elimination divided by the concentration.

pEC50, pIC50: −log10 of the molar value. Where only a bound is given, the exact number is not on record here.

From ChEMBL document CHEMBL1153893, “5,6-Dihydro-1H-pyridin-2-ones as potent inhibitors of HCV NS5B polymerase” (Bioorg Med Chem Lett, 2009) come the findings set out here.

Series [1] deals with Hepatitis C virus. In words: Inhibition of HCV 1b NS5B polymerase by Microbeta scintillation counter. Details: species or system Hepatitis C virus subtype 1b.
A short description of series [2]: Inhibition of HCV 1a isolate H77 NS5B polymerase by Microbeta scintillation counter. On the set-up: species or system Hepatitis C virus subtype 1a.
Series [3] relates to Hepatitis C virus. In words: Antiviral activity against HCV 1b infected in human Huh7/C24 after 72 hrs. In kind it is functional, organism-based, Hepacivirus hominis. The settings on record: genotype 1b, Huh-7, 72 h.
The nature of series [4]: Cytotoxicity against human Huh7/C24 after 72 hrs. In kind it is cell-based, Huh-7. The settings on record: Huh7/C24 cells.
A short description of series [5]: Metabolic stability in human liver microsomes assessed as half life. It counts as ADME, Microsome. (In general: Microsomes from liver hold many membrane-bound enzymes, among them those of drug oxidation.)
A short description of series [6]: Metabolic stability in human liver microsomes assessed as compound remaining at 1 uM after 60 mins. It counts as ADME, Microsome. The settings on record: read-out: Stability.
A short description of series [7]: Metabolic stability in monkey liver microsomes assessed as half life. In kind it is ADME, Macaca mulatta, Microsome. The settings on record: rhesus monkey.
The nature of series [8]: Apparent permeability across human Caco-2 cells from apical to basolateral side in human Caco2 cell membrane. It counts as ADME, cell-based. On the technique in general: Caco-2 cells form a polarised layer with tight junctions and transporters.
Series [9] can be described thus: Oral bioavailability in cynomolgus monkey at 1 mg/kg. The settings on record: in vivo. In kind it is ADME, organism-based, Macaca fascicularis.
Series [10] deals with Cynomolgus monkey. In words: AUC (0 to infinity) in cynomolgus monkey at 1 mg/kg, po. On the set-up: time infinity, dose 1 mg/kg, route oral. In kind it is ADME, organism-based, Macaca fascicularis, Plasma. The settings on record: in vivo.
Series [11] can be described thus: Clearance in cynomolgus monkey at 1 mg/kg, iv. In kind it is ADME, organism-based, Macaca fascicularis. Details: dose 1 mg/kg, route intravenous. The settings on record: in vivo.
Series [12] relates to Cynomolgus monkey. In words: AUC (0 to infinity) in cynomolgus monkey at 1 mg/kg, iv. In kind it is ADME, organism-based, Macaca fascicularis, Plasma. On the set-up: dose 1 mg/kg, route intravenous, time infinity. The settings on record: in vivo.

With `CS(=O)(=O)Nc1ccc2c(c1)S(=O)(=O)N=C(C1=C(O)C3CCCCCCC3N(Cc3ccc(F)cc3)C1=O)N2` (racemic), the pIC50 in the series on Hepatitis C virus [1] is 6.89; in series [2], 6.00. In the series with Hepatitis C virus [3], the pEC50 is 5.14. In addition, in series [4], the CC50 at 72 h was over 33000 nM. Moreover, the half-life in series [5] is over 60 min. Moreover, the remaining at 1 h, 1 µM in [6] was determined as 66%.

Turning to `CS(=O)(=O)Nc1ccc2c(c1)S(=O)(=O)N=C(C1=C(O)C3CCCC3N(CCc3ccccc3)C1=O)N2` (racemic), the pIC50 with Hepatitis C virus [1] was 6.24. In addition, the pEC50 in the series with Hepatitis C virus [3] is 5.82. Moreover, the CC50 at 72 h in series [4] was over 33000 nM. Besides, in series [5], the half-life turned out to be 25 min.

For the compound `CS(=O)(=O)Nc1ccc2c(c1)S(=O)(=O)N=C(C1=C(O)C3CCCC3N(Cc3cccc(F)c3)C1=O)N2` (racemic), the pIC50 was 7.70 with Hepatitis C virus [1] and 6.89 in series [2]. The compound also had a pEC50 in the series with Hepatitis C virus [3] of 6.77. In series [4], this compound came in with a CC50 at 72 h of over 33000 nM. Further, the half-life in [5] was 51 min.

As for `CC(C)CCN1C(=O)C(C2=NS(=O)(=O)c3cc(NS(C)(=O)=O)ccc3N2)=C(O)C2CCCC21` (racemic), the values for the pIC50 (with Hepatitis C virus [1]; in series [2]) were over 8.00 and over 7.60, respectively. The pEC50 in the series on Hepatitis C virus [3] was 7.22. Moreover, the half-maximal cytotoxic concentration (CC50) at 72 h in series [4] was over 1000 nM. Also, the results for the half-life in [5] and in series [7] were 10 min and 13 min, respectively. In addition, in series [8], the apical-to-basolateral permeability (Papp A→B) came to 3.3 ×10⁻⁶ cm/s. The compound further gave a bioavailability in series [9] of 10%. Besides, the AUC in the series on Cynomolgus monkey [10] stood at 273 ng·h/mL; in the series with Cynomolgus monkey [12], 2790 ng·h/mL. Besides, the clearance in series [11] was 6.2 mL/min/kg.

As to `CN(C)CCN1C(=O)C(C2=NS(=O)(=O)c3cc(NS(C)(=O)=O)ccc3N2)=C(O)C2CCCC21` (racemic), in the series with Hepatitis C virus [1], the pIC50 was 5.17. Also, the half-life in series [5] is over 60 min. In addition, the remaining at 1 h, 1 µM in series [6] amounted to 97%.

Consider `CS(=O)(=O)Nc1ccc2c(c1)S(=O)(=O)N=C(C1=C(O)C3CCCC3N(Cc3ccccc3)C1=O)N2` (racemic), for which the results for the pIC50 (with Hepatitis C virus [1]; in [2]) were 7.34 and 7.00, respectively. This compound also had a negative logarithm of the EC50 (pEC50) in the series with Hepatitis C virus [3] of 7.00. This compound also came in with a CC50 at 72 h in series [4] of over 33000 nM. The half-life in series [5] was found to be 50 min.

With `CS(=O)(=O)Nc1ccc2c(c1)S(=O)(=O)N=C(C1=C(O)C3CCCC3N(Cc3ccc(Cl)cc3)C1=O)N2` (racemic), the pIC50 with Hepatitis C virus [1] was 7.55. This compound also gave a negative-log EC50 (pEC50) in the series with Hepatitis C virus [3] of 6.06. The compound further displayed a CC50 at 72 h in series [4] of over 10000 nM. For the same compound, in series [5], the half-life is over 60 min. In addition, the remaining at 1 h, 1 µM in [6] worked out at 90%.

In the case of `CS(=O)(=O)Nc1ccc2c(c1)S(=O)(=O)N=C(C1=C(O)[C@H]3CCC[C@H]3N(Cc3ccc(F)c(Cl)c3)C1=O)N2`, the pIC50 in the series on Hepatitis C virus [1] was over 8.00; in series [2] it was 7.55. In the series on Hepatitis C virus [3], this compound gave a pEC50 of 7.26. In [4], this compound came in with a CC50 at 72 h of over 1000 nM. Besides, in series [5], the half-life was over 60 min. The remaining at 1 h, 1 µM in series [6] is 81%.

In the series with Hepatitis C virus [1], `CS(=O)(=O)Nc1ccc2c(c1)S(=O)(=O)N=C(C1=C(O)C3CCCC3N(CC3CCC3)C1=O)N2` (racemic) had a pIC50 of 7.29. Besides, the pEC50 with Hepatitis C virus [3] is 6.15. The same compound yielded a CC50 at 72 h in series [4] of over 33000 nM. The half-life in [5] stood at 4 min.

`CCN1C(=O)C(C2=NS(=O)(=O)c3cc(NS(C)(=O)=O)ccc3N2)=C(O)C2CCCC21` (racemic) gave a pIC50 in the series on Hepatitis C virus [1] of 6.02. This compound also gave a pEC50 in the series with Hepatitis C virus [3] of 5.68. Further, in series [4], the CC50 at 72 h was over 33000 nM.

As to `CC(C)(C)CCN1C(=O)C(C2=NS(=O)(=O)c3cc(NS(C)(=O)=O)ccc3N2)=C(O)C2CCCN21` (stereo unspecified), the pIC50 in the series on Hepatitis C virus [1] is over 8.00; in [2], over 7.60. Moreover, the AUC was 344 ng·h/mL with Cynomolgus monkey [10] and 5180 ng·h/mL in the series on Cynomolgus monkey [12].

On to `CC(C)(C)CCN1C(=O)C(C2=NS(=O)(=O)c3cc(NS(C)(=O)=O)ccc3N2)=C(O)[C@H]2CCC[C@H]21`, for which the pIC50 in the series on Hepatitis C virus [1] was over 8.00; in series [2], over 7.60. Further, in the series on Hepatitis C virus [3], the pEC50 was 8.05. The compound further gave a CC50 at 72 h in series [4] of over 1000 nM. Besides, the half-life in [5] was found to be 16 min.

In the case of `CS(=O)(=O)Nc1ccc2c(c1)S(=O)(=O)N=C(C1=C(O)[C@H]3CCC[C@H]3N(CC3CC3)C1=O)N2`, the pIC50 in the series on Hepatitis C virus [1] is 6.68. In the series on Hepatitis C virus [3], the pEC50 was 6.03. Also, in series [4], the CC50 at 72 h is over 33000 nM. For the same compound, the half-life in [5] was over 60 min. In addition, the remaining at 1 h, 1 µM in series [6] was 99%.

As for `CS(=O)(=O)Nc1ccc2c(c1)S(=O)(=O)N=C(C1=C(O)C3CCCC3N(Cc3ccccn3)C1=O)N2` (racemic), the pIC50 is 6.37 in the series on Hepatitis C virus [1] and 6.33 in series [2]. Also, the pEC50 in the series with Hepatitis C virus [3] is 5.09. The compound also yielded a CC50 at 72 h in series [4] of over 33000 nM. Also, the half-life in [5] was over 60 min. Also, the remaining at 1 h, 1 µM in [6] turned out to be 76%.

Turning to `CS(=O)(=O)Nc1ccc2c(c1)S(=O)(=O)N=C(C1=C(O)C3CCCC3N(C3CCCCC3)C1=O)N2` (racemic), in the series with Hepatitis C virus [1], the pIC50 is 6.14. In the series with Hepatitis C virus [3], the pEC50 is 5.37. The compound also returned a CC50 at 72 h in series [4] of over 10000 nM.

Consider `CN1C(=O)C(C2=NS(=O)(=O)c3cc(NS(C)(=O)=O)ccc3N2)=C(O)C2CCCC21` (racemic), for which the negative-log IC50 (pIC50) in the series on Hepatitis C virus [1] is 5.04.
